Melting point data for 20 compounds are collected here from patent US6803380B1, “5-aryl-1h-1,2,4-triazole compounds as inhibitors of cyclooxygenase-2 and pharmaceutical compositions containing them” (Laboratoire Theramex, priority 1999, dated 2004).

In turn, `CS(=O)(=O)c1ccc(-c2nc(C(F)(F)F)nn2-c2cccnc2)cc1.Cl` gave a melting point of 180 °C.

Compound `Cc1nc(-c2ccc(S(C)(=O)=O)cc2)n(-c2ccc(F)cc2)n1` [Example 2, 1-(4-fluoro-phenyl)-3-methyl-5-(4-methylsulfonyl-phenyl)-1H-1,2,4-triazole] displayed a melting point of 180 °C.

In turn, `Cc1ccc(-n2nc(C)nc2-c2ccc(S(C)(=O)=O)cc2)cc1` [Example 4, 3-methyl-1-(4-methyl-phenyl)-5-(4-methylsulfonyl-phenyl)-1H-1,2,4-triazole] displayed a melting point of 176 °C.

Compound `Cc1nc(-c2ccc(S(C)(=O)=O)cc2)n(-c2ccccc2)n1` [Example 5, 3-methyl-5-(4-methylsulfonyl-phenyl)-1-phenyl-1H-1,2,4-triazole] showed a melting point of 146 °C.

`Cc1nc(-c2ccc(S(C)(=O)=O)cc2)n(-c2ccccc2Cl)n1` [Example 6, 1-(2-chloro-phenyl)-3-methyl-5-(4-methylsulfonyl-phenyl)-1H-1,2,4-triazole] showed a melting point of 170 °C.

Regarding `Cc1nc(-c2ccc(S(C)(=O)=O)cc2)n(-c2cccc(Cl)c2)n1` [Example 7, 1-(3-chloro-phenyl)-3-methyl-5-(4-methylsulfonyl-phenyl)-1H-1,2,4-triazole], the melting point amounted to 130 °C.

In turn, `Cc1nc(-c2ccc(S(C)(=O)=O)cc2)n(-c2ccc(Br)cc2)n1` [Example 9, 1-(4-bromo-phenyl)-3-methyl-5-(4-methylsulfonyl-phenyl)-1H-1,2,4-triazole] displayed a melting point of 188 °C.

Consider `Cc1nc(-c2ccc(S(C)(=O)=O)cc2)n(-c2ccc(F)cc2F)n1` [Example 11, 1-(2,4-difluoro-phenyl)-3-methyl-5-(4-methylsulfonyl-phenyl)-1H-1,2,4-triazole], for which the melting point turned out to be 160 °C.

`Cc1nc(-c2ccc(S(C)(=O)=O)cc2)n(-c2ccc([N+](=O)[O-])cc2)n1` [Example 12, 3-methyl-5-(4-methylsulfonyl-phenyl)-1-(4-nitro-phenyl)-1H-1,2,4-triazole]: the melting point was 180 °C.

As to `Cc1nc(-c2ccc(S(C)(=O)=O)cc2)n(-c2ccc(F)c(F)c2)n1` [Example 13, 1-(3,4-difluoro-phenyl)-3-methyl-5-(4-methylsulfonyl-phenyl)-1H-1,2,4-triazole], the melting point came to 194 °C.

In turn, `COc1ccc(-n2nc(C)nc2-c2ccc(S(C)(=O)=O)cc2)cc1OC` [Example 14, 1-(3,4-dimethoxy-phenyl)-3-methyl-5-(4-methylsulfonyl-phenyl)-1H-1,2,4-triazole] yielded a melting point of 186 °C.

Take `CS(=O)(=O)c1ccc(-c2nc(C(F)(F)F)nn2-c2ccc(F)cc2)cc1` [Example 20, 1-(4-fluoro-phenyl)-5-(4-methylsulfonyl-phenyl)-3-trifluoromethyl-1H-1,2,4-triazole]: the melting point lay in the range of 230 to 232 °C.

With `CS(=O)(=O)c1ccc(-c2nc(C(F)(F)F)nn2-c2ccc(Cl)cc2)cc1` [Example 21, 1-(4-chloro-phenyl)-5-(4-methylsulfonyl-phenyl)-3-trifluoromethyl-1H-1,2,4-triazole], the melting point is 190 to 192 °C.

Regarding `CS(=O)(=O)c1ccc(-c2nc(C(F)(F)F)nn2C2CCCCC2)cc1` [Example 22, 1-(cyclohexyl)-5-(4-methylsulfonyl-phenyl)-3-trifluoromethyl-1H-1,2,4-triazole], the melting point turned out to be 136 °C.

In turn, `COc1ccc(Cn2nc(C(F)(F)F)nc2-c2ccc(S(C)(=O)=O)cc2)cc1OC` [Example 23, 1-(3,4-dimethoxy-phenyl-methyl)-5-(4-methylsulfonyl-phenyl)-3-trifluoromethyl-1H-1,2,4-triazole] returned a melting point of 142 °C.

Regarding `COc1ccc(-n2nc(C(F)(F)F)nc2-c2ccc(S(C)(=O)=O)cc2Cl)cc1` [Example 24, 5-(2-chloro-4-methylsulfonyl-phenyl)-1-(4-methoxy-phenyl)-3-trifluoromethyl-1H-1,2,4-triazole], the melting point is 148 °C.

As to `CS(=O)(=O)c1ccc(-c2nc(C(F)(F)F)nn2-c2ccc(S(C)(=O)=O)cc2)cc1` [Example 26, 1,5-di-(4-methylsulfonyl-phenyl)-3-trifluoromethyl-1H-1,2,4-triazole], the melting point was 214 °C.

`COc1ccc(-n2nc(C(F)(F)F)nc2-c2ccc(S(C)(=O)=O)cc2)cc1OC` [Example 27, 1-(3,4-dimethoxy-phenyl)-5-(4-methylsulfonyl-phenyl)-3-trifluoromethyl-1H-1,2,4-triazole] came in with a melting point of 140 °C.

In the case of `CS(=O)(=O)c1ccc(-c2nc(C(F)(F)F)nn2-c2ccc3c(c2)OCO3)cc1` [Example 28, 1-(3,4-methylenedioxy-phenyl)-5-(4-methylsulfonyl-phenyl)-3-trifluoromethyl-1H-1,2,4-triazole], the melting point was 185 °C.

Take `COc1ccc(-n2nc(C(F)(F)F)nc2-c2ccc(S(C)(=O)=O)cc2)cc1F` [Example 33, 1-(3-fluoro-4-methoxy-phenyl)-5-(4-methylsulfonyl-phenyl)-3-trifluoromethyl-1H-1,2,4-triazole]: the melting point amounted to 180 °C.
